Biological target: α-glucosidase (E.C.3.2.1.20) (Saccharomyces cerevisiae, UniProt P53341)
Assay: α-glucosidase inhibition assay
Format: biochemical
Conditions: for inhibition at 500 µM: read-out: Percent inhibition (0.5 mM); for α-glucosidase inhibitory activity (in words): IC50 could not be determined

Chain of α-glucosidase (E.C.3.2.1.20) (P53341 whole entry): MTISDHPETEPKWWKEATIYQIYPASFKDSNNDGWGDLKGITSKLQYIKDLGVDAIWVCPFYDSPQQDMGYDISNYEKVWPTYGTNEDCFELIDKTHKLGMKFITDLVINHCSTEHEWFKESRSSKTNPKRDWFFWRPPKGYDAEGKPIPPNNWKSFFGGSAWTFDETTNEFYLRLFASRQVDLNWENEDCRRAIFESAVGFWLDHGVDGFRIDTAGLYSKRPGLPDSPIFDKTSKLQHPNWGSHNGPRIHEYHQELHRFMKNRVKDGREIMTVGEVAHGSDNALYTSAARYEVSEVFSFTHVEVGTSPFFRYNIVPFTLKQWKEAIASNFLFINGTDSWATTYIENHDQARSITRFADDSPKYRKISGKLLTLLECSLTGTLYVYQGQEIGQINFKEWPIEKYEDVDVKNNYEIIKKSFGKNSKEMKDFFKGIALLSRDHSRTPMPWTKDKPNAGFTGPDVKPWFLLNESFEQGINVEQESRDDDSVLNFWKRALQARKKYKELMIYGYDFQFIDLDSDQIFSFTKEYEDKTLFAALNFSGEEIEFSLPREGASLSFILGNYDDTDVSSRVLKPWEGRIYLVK

Row | inhibition at 500 µM [%] | α-glucosidase inhibitory activity (in words) | SMILES
1 | 94.5 | – | O=C(NN=C1C(=O)N(CCOc2ccc(Cl)cc2)c2ccccc21)c1ccc(Br)cc1 [1f, 4-Bromo-N′-(1-(2-(4-chlorophenoxy)ethyl)-2-oxoindolin3ylidene)benzohydrazide]
2 | 89.9 | – | O=C(NN=C1C(=O)N(CCOc2ccc(Br)cc2)c2ccccc21)c1ccncc1 [1h, N′-(1-(2-(4-Bromophenoxy)ethyl)-2-oxoindolin-3-ylidene)isonicotinohydrazide]
3 | 94.9 | – | O=C(NN=C1C(=O)N(CCOc2ccc(Br)cc2)c2ccccc21)c1ccc(Br)cc1 [1i, 4-Bromo-N′-(1-(2-(4-bromophenoxy)ethyl)-2-oxoindolin-3-ylidene)benzohydrazide]
4 | 39.3 | loss of inhibitory activity | O=C(NN=C1C(=O)N(CCOc2ccc(F)cc2)c2ccccc21)c1ccncc1 [1k, N′-(1-(2-(4-Fluorophenoxy)ethyl)-2-oxoindolin-3-ylidene)isonicotinohydrazide]
5 | 93.1 | – | O=C(NN=C1C(=O)N(CCOc2ccc(F)cc2)c2ccccc21)c1ccc(Br)cc1 [1l, 4-Bromo-N′-(1-(2-(4-fluorophenoxy)ethyl)-2-oxoindolin-3-ylidene)benzohydrazide]

Continued, molecule first:

Row | SMILES | inhibition at 500 µM [%] | α-glucosidase inhibitory activity (in words)
6 | O=C(NN=C1C(=O)N(CCOc2ccccc2)c2ccccc21)c1cccnc1 [1a, N′-(2-Oxo-1-(2-phenoxyethyl)indolin-3-ylidene)nicotinohydrazide] | 75.6 | –
7 | O=C(NN=C1C(=O)N(CCOc2ccccc2)c2ccccc21)c1ccncc1 [1b, N′-(2-Oxo-1-(2-phenoxyethyl)indolin-3-ylidene)isonicotinohydrazide] | 94.1 | –
8 | O=C(NN=C1C(=O)N(CCOc2ccccc2)c2ccccc21)c1ccc(Br)cc1 [1c, 4-Bromo-N′-(2-oxo-1-(2-phenoxyethyl)indolin-3-ylidene)benzohydrazide] | 90.6 | –
9 | O=C(NN=C1C(=O)N(CCOc2ccc(Cl)cc2)c2ccccc21)c1cccnc1 [1d, N′-(1-(2-(4-Chlorophenoxy)ethyl)-2-oxoindolin-3-ylidene)nicotinohydrazide] | 92.9 | –
10 | O=C(NN=C1C(=O)N(CCOc2ccc(Cl)cc2)c2ccccc21)c1ccncc1 [1e, N′-(1-(2-(4-Chlorophenoxy)ethyl)-2-oxoindolin-3ylidene)isonicotinohydrazide] | 94.7 | –
11 | O=C(NN=C1C(=O)N(CCOc2ccc(Br)cc2)c2ccccc21)c1cccnc1 [1g, N′-(1-(2-(4-Bromophenoxy)ethyl)-2-oxoindolin-3-ylidene)nicotinohydrazide] | 92.1 | –
12 | O=C(NN=C1C(=O)N(CCOc2ccc(F)cc2)c2ccccc21)c1cccnc1 [1j, N′-(1-(2-(4-Fluorophenoxy)ethyl)-2-oxoindolin-3-ylidene)nicotinohydrazide] | 36 | complete loss of inhibitory activity
